Laboratory results taken from ChEMBL document CHEMBL4831509, “Identification, semisynthesis, and anti-inflammatory evaluation of 2,3-seco-clavine-type ergot alkaloids from human intestinal fungus Aspergillus fumigatus CY018” (Eur J Med Chem, 2021).
Active and inactive are the calls of the source. No cut-off for these calls is given here.

How the values were obtained:
RAW264.7 [1] = test: Antiinflammatory activity against LPS-induced mouse RAW264.7 cells assessed as inhibition of NO production preincubated for 1 hr followed by LPS stimulation and measured after 24 hrs by Greiss reagent based assay; type: functional, cell-based
RAW264.7 [2] = test: Antiinflammatory activity against LPS-induced MD2-knockdown mouse RAW264.7 cells assessed as reduction in COX-2 mRNA expression by qRT-PCR analysis; type: functional, cell-based
RAW264.7 [3] = test: Antiinflammatory activity against LPS-induced mouse RAW264.7 cells assessed as reduction in IL-6 production preincubated for 1 hr followed by LPS stimulation and measured after 24 hrs by ELISA; type: functional, cell-based; settings: dose 2.5-10 µM, time 25.0 hrs
RAW264.7 [4] = test: Antiinflammatory activity against LPS-induced MD2-knockdown mouse RAW264.7 cells assessed as reduction in IL-6 mRNA expression by qRT-PCR analysis; type: functional, cell-based
RAW264.7 [5] = test: Antiinflammatory activity against LPS-induced mouse RAW264.7 cells assessed as downregulation of COX2 protein expression at 2.5 to 10 uM by western blot analysis; type: functional, cell-based; settings: dose 2.5-10 µM
RAW264.7 [6] = test: Antiinflammatory activity against LPS-induced MD2-knockdown mouse RAW264.7 cells assessed as reduction in TNF-alpha secretion pretreated for 1 hr followed by LPS stimulation and measured after 24 hrs by ELISA; type: functional, cell-based; settings: time 25.0 hrs
RAW264.7 [7] = test: Antiinflammatory activity against LPS-induced mouse RAW264.7 cells assessed as reduction in IL-6 production at 10 uM preincubated for 1 hr followed by LPS stimulation and measured after 24 hrs by ELISA relative to control; type: functional; settings: time 25 hrs
RAW264.7 [8] = test: Binding affinity to MD2 in mouse RAW264.7 cells assessed as inhibition of LPS/MD2 colocalization at 10 uM preincubated for 1 hr followed by incubation with FITC-conjugated LPS for 1 hr by DAPI staining based confocal microscopy; type: cell-based; settings: time 2.0 hrs
RAW264.7 [9] = test: Inhibition of MD2 in LPS-stimulated mouse RAW264.7 cells assessed as reduction in p65 nuclear translocation by measuring red fluorescence intensity in nucleus at 10 uM preincubated for 1 hr followed by LPS stimulation and measured after 6 hrs by DAPI staining based confocal microscopy; settings: time 7.0 hrs
RAW264.7 [10] = test: Antiinflammatory activity against LPS-induced mouse RAW264.7 cells assessed as reduction in TNF-alpha production at 10 uM preincubated for 1 hr followed by LPS stimulation and measured after 24 hrs by ELISA relative to control; type: functional; settings: time 25 hrs
RAW264.7 [11] = test: Antiinflammatory activity against LPS-induced MD2-knockdown mouse RAW264.7 cells assessed as reduction in iNOS mRNA expression by qRT-PCR analysis; type: functional, cell-based
RAW264.7 [12] = test: Downregulation of MD2 expression in mouse RAW264.7 cells at 2.5 to 10 uM by western blot analysis; type: functional, cell-based; settings: dose 2.5-10 µM
Homo sapiens [13] = species: Homo sapiens; test: Binding affinity to MD2 (unknown origin) assessed as association constant by surface plasmon resonance assay
RAW264.7 [14] = test: Antiinflammatory activity against LPS-induced mouse RAW264.7 cells assessed as reduction in TNF-alpha production preincubated for 1 hr followed by LPS stimulation and measured after 24 hrs by ELISA; type: functional, cell-based; settings: dose 2.5-10 µM, time 25.0 hrs
[15] = molecular target: T1, Toll-like receptor 4 (Mus musculus) (UniProt Q9QUK6); test: Binding affinity to TLR4 in mouse RAW264.7 cells assessed as inhibition of LPS/TLR4 colocalization at 10 uM preincubated for 1 hr followed by incubation with FITC-conjugated LPS for 1 hr by DAPI staining based confocal microscopy; type: cell-based; settings: time 2.0 hrs
T1 sequence (whole entry): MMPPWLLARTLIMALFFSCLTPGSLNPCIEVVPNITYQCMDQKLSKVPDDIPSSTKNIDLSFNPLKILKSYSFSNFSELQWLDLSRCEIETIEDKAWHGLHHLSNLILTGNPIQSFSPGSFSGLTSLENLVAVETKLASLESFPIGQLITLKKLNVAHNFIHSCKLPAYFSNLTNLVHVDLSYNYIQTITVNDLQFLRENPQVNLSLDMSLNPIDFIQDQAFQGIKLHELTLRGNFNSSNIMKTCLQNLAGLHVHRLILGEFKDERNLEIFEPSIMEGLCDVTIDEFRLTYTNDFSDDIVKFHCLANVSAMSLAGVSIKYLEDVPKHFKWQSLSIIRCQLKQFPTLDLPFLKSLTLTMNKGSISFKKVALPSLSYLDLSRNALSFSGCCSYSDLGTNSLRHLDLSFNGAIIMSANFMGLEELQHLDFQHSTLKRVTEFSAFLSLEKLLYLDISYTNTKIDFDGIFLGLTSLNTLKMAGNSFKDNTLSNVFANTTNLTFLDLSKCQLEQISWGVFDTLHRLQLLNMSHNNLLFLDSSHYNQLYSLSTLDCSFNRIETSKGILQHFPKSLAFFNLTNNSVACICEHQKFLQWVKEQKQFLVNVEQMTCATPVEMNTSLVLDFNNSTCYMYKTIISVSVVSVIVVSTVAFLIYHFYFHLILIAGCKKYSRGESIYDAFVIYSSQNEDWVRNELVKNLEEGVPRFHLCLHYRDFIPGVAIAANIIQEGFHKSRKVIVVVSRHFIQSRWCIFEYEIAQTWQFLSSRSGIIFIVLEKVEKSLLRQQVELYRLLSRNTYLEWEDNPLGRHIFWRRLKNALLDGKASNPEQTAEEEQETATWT

RAW264.7 [16] = test: Inhibition of MD2 in LPS-stimulated mouse RAW264.7 cells assessed as reduction in JNK phosphorylation at 2.5 to 10 uM measured by immunoblot analysis; settings: dose 2.5-10 µM
RAW264.7 [17] = test: Inhibition of MD2 in mouse RAW264.7 cells assessed as reduction in LPS-induced TLR4/MD2 complex formation preincubated for 30 mins followed by LPS stimulation for 30 mins by co-immunoprecipitation analysis; type: cell-based; settings: dose 2.5-10 µM, time 60.0 min
RAW264.7 [18] = test: Inhibition of MD2 in LPS-stimulated mouse RAW 264.7 cells assessed as reduction in IKKbeta phosphorylation by western blot analysis; settings: dose 2.5-10 µM
RAW264.7 [19] = test: Antiinflammatory activity against LPS-induced mouse RAW264.7 cells assessed as downregulation of iNOS protein expression at 2.5 to 10 uM by western blot analysis; type: functional, cell-based; settings: dose 2.5-10 µM
RAW264.7 [20] = test: Antiinflammatory activity against LPS-induced MD2-knockdown mouse RAW264.7 cells assessed as reduction in TNF-alpha mRNA expression by qRT-PCR analysis; type: functional, cell-based
RAW264.7 [21] = test: Inhibition of MD2 in LPS-stimulated mouse RAW264.7 cells assessed as reduction in ERK phosphorylation at 2.5 to 10 uM measured by immunoblot analysis; settings: dose 2.5-10 µM
RAW264.7 [22] = test: Inhibition of MD2 in LPS-stimulated mouse RAW 264.7 cells assessed as reduction in p65 phosphorylation by western blot analysis; settings: dose 2.5-10 µM
Homo sapiens [23] = species: Homo sapiens; test: Binding affinity to MD2 (unknown origin) assessed as dissociation constant by surface plasmon resonance assay
RAW264.7 [24] = test: Inhibition of MD2 in LPS-stimulated mouse RAW264.7 cells assessed as reduction in p38 phosphorylation at 2.5 to 10 uM measured by immunoblot analysis; settings: dose 2.5-10 µM
[25] = Binding affinity to MD2 (unknown origin) assessed as equilibrium dissociation constant by surface plasmon resonance assay; design: species or system Homo sapiens
RAW264.7 [26] = test: Downregulation of TLR4 expression in mouse RAW264.7 cells at 2.5 to 10 uM by western blot analysis; type: functional, cell-based; settings: dose 2.5-10 µM

Compound `C=CC(C)(C)C(=O)Nc1cccc2c1C(=O)C[C@@H]1[C@@H]2[C@@H](OC(C)=O)[C@H](C)CN1C` has an IC50 (RAW264.7 [1]) of 43.2 µM.

With `C=CC(C)(C)C(=O)Nc1cccc2c1C(=O)C[C@H]1NC[C@@H](C)[C@H](OC(C)=O)[C@H]21` the IC50 (RAW264.7 [1]) was 53.3 µM.

Work on `COc1ccc2c(c1)c(CC(=O)O)c(C)n2C(=O)c1ccc(Cl)cc1` [INDOMETHACIN] yielded an IC50 (RAW264.7 [1]) of 11 µM.

For `C=CC(C)(C)c1[nH]c2cccc3c2c1C[C@H]1NC[C@@H](C)[C@H](OC(C)=O)[C@H]31`, the IC50 (RAW264.7 [1]) was 60.4 µM.

In the case of `C=CC(C)(C)C(=O)Nc1cccc2c1C(=O)C[C@@H]1[C@H]2[C@H](OC(C)=O)[C@@H](C)CN1C`, the Activity (RAW264.7 [2]) is reported as “inactive”, the Activity (RAW264.7 [3]) is reported as “Dose-Dependent Effect” and the Activity (RAW264.7 [4]) is reported as “inactive”. For the same compound, the Activity (RAW264.7 [5]) was “Active”, the Activity (RAW264.7 [6]) was “inactive” and the IC50 (RAW264.7 [1]) was 3.48 µM. The inhibition at 10 µM (RAW264.7 [7]) was 84%, the Activity (RAW264.7 [8]) was “Active” and the inhibition (RAW264.7 [9]) was “Active”. The inhibition at 10 µM (RAW264.7 [10]) was 68.2%, the Activity (RAW264.7 [11]) was “inactive” and the inhibition (RAW264.7 [12]) was “Active”. For the same compound, the Ka (Homo sapiens [13]) was 373 M⁻¹ s⁻¹, the Activity (RAW264.7 [14]) was “Dose-Dependent Effect” and the Activity [15] was “inactive”. For the same compound, the inhibition (RAW264.7 [16]) was “Active”, the inhibition (RAW264.7 [17]) was “Dose-Dependent Effect” and the inhibition (RAW264.7 [18]) was “Dose-Dependent Effect”. The Activity (RAW264.7 [19]) was “Active”, the Activity (RAW264.7 [20]) was “inactive” and the inhibition (RAW264.7 [21]) was “Active”. The inhibition (RAW264.7 [22]) was “Dose-Dependent Effect”, the Kdiss (Homo sapiens [23]) was 0.0054 s⁻¹ and the inhibition (RAW264.7 [24]) was “Active”. For the same compound, the Kd [25] was 14.5 µM and the inhibition (RAW264.7 [26]) was “Active”.

With `C=CC(C)(C)C(=O)Nc1cccc2c1C(=O)C[C@H]1NC[C@H](C)[C@@H](OC(C)=O)[C@@H]21` the IC50 (RAW264.7 [1]) was 7.83 µM.

Compound `C=CC(C)(C)c1[nH]c2cccc3c2c1C[C@@H]1[C@@H]3[C@@H](OC(C)=O)[C@H](C)CN1C` has an IC50 (RAW264.7 [1]) of 22.8 µM.

`C=CC(C)(C)C(=O)Nc1cccc2c3cc(C)cn(C)c-3cc(=O)c12` gave an IC50 (RAW264.7 [1]) of 9.47 µM.
